Test system: ERISU (Conyza sumatrensis, Sumatran fleabane)
Assay: greenhouse post-emergence foliar weed control, visual score 0-100 percent
Assay type: in vivo
Conditions: 49 gai/ha
From the text: Results in Examples are greenhouse trial results.
Seeds or nutlets of the desired test plant species were planted in a soil matrix prepared by mixing a loam or sandy loam soil (e.g., 28.6 percent silt, 18.8 percent clay, and 52.6 percent sand, with a pH of about 5.8 and an organic matter content of about 1.8 percent) and calcareous grit in an 80 to 20 ratio. The soil matrix was contained in plastic pots with a volume of 1 quart and a surface area of 83.6 cm2. When required to ensure good germination and healthy plants, a fungicide treatment and/or other chemical or physical treatment was applied. The plants were grown for 8-22 days in a greenhouse with an approximate 14 h photoperiod which was maintained at about 29° C. during the day and 26° C. during the night. Nutrients (Peters Excel® 15-5-15 5-Ca 2-Mg and iron chelate) were applied in the irrigation solution as needed and water was added on a regular basis. Supplemental lighting was provided with overhead metal halide 1000-Watt lamps as necessary. The plants were employed for testing when they reached the first through fourth true leaf stage.
Treatments comprised of the acid or esters of halauxifen-methyl (methyl 4-amino-3-chloro-6-(4-chloro-2-fluoro-3-methoxyphenyl)picolinate), each formulated as an SC (suspension concentrate), and various herbicidal components alone and in combination. A form of the compound of Formula I were applied on an acid equivalent basis.
Treatment requirements were calculated based upon the rates being tested, the concentration of active ingredient or acid equivalent in the formulation, and a 12 mL application volume at a rate of 187 L/ha.
For treatments comprised of formulated and technical compounds, weighed amounts of the technical materials were placed individually in 25 mL glass vials and dissolved in a volume of 97:3 v/v acetone/DMSO to obtain 12× stock solutions, and measured amounts of the formulated compounds were placed individually in 25 mL glass vials and diluted in a volume of 1.5% (v/v) crop oil concentrate or water to obtain 12× stock solutions. […] As required, additional water and/or 97:3 v/v acetone/DMSO was added to individual application solutions so that the final acetone and DMSO concentrations of the application solutions being compared were 8.1% and 0.25%, respectively.
All stock solutions and applications solutions were visually inspected for compound compatibility prior to application. Spray solutions were applied to the plant material with an overhead Mandel track sprayer equipped with an 8002E nozzle calibrated to deliver 187 L/ha over an application area of 0.503 m2 at a spray height of 18 to 20 inches (46 to 50 cm) above average plant canopy height. Control plants were sprayed in the same manner with the solvent blank.
The treated plants and control plants were placed in a greenhouse as described above and watered by sub-irrigation to prevent wash-off of the test compounds. […]
Table 1 illustrates weed control for foliar applications of compositions comprising halauxifen-methyl+2,4-D-dimethylammonium (2,4-D-DMA)+saflufenacil on various broadleaf weeds. […] The compositions disclosed herein can be used in burndown and fallow crop applications or in herbicide tolerant crops. These compositions can be used for broad-spectrum control of broadleaf weeds including, but not limited to, ALS, auxinic, HPPD, PPO, saflufenacil and glyphosate resistant broadleaf weeds. The compositions disclosed herein can have utility in AAD1 and AAD12 monocot and dicot crops whereby there is crop tolerance to all 3 modes of action, providing growers with a solution to control susceptible and resistant broadleaf weeds, as well as to delay the development of resistance by the use of 3 modes of action product. The compositions disclosed herein can be used in non-crop and R&P/IVM situations, post directed in perennial crops, and potentially across many crops where there is tolerance to all 3 modes of action.

Which results are given for `CC(C)N(C)S(=O)(=O)NC(=O)c1cc(-n2c(=O)cc(C(F)(F)F)n(C)c2=O)c(F)cc1Cl` [saflufenacil, 2-chloro-5-[3,6-dihydro-3-methyl-2,6-dioxo-4-(trifluoromethyl)-1(2H)-pyrimidinyl]-4-fluoro-N-[[methyl(1-methylethyl)amino]sulfonyl]benzamide]?
Chem 2 Actual Mean % Weed Control (Trial 1, ERISU, 17DAA): 52.50%; Chem 2 Actual Mean % Weed Control (Trial 1, ERISU, 28DAA): 66.25%; Chem 2 Actual Mean % Weed Control (Trial 1, ERISU, 43DAA): 77.50%; Chem 2 Actual Mean % Weed Control (Trial 2, ERISU, 17DAA): 66.25%; Chem 2 Actual Mean % Weed Control (Trial 2, ERISU, 28DAA): 97.50%; Chem 2 Actual Mean % Weed Control (Trial 2, ERISU, 43DAA): 98.25%
